Tests used:
Format in all cases: in vivo
[1] = system: Setaria; test: Pre-emergence test/greenhouse; conditions: after three weeks
Protocol: (§1) Solvent: 5 parts by weight of acetone
(§2) Emulsifier: 1 part by weight of alkylaryl polyglycol ether
(§3) To produce a suitable preparation of active compound, 1 part by weight of active compound is mixed with the stated amount of solvent, the stated amount of emulsifier is added and the concentrate is diluted with water to the desired concentration.
(§4) Seeds of the test plants are sown in normal soil. After about 24 hours, the soil is sprayed with the preparation of active compound such that the particular amounts of active compound desired are applied per unit area. The concentration of the spray liquor is chosen so that the particular amounts of active compound desired are applied in 1000 l of water/ha.
(§5) After three weeks, the degree of damage to the plants is rated in % damage in comparison to the development of the untreated control.
(§6) 0%=no effect (like untreated control)

[2] = system: Maize; test: Pre-emergence test/greenhouse; conditions: after three weeks, crop plant
Protocol: as §1, §2, §3, §4, §5, §6

[3] = system: Amaranthus; test: Pre-emergence test/greenhouse; conditions: after three weeks
Protocol: as §1, §2, §3, §4, §5, §6

[4] = system: Alopecurus; test: Pre-emergence test/greenhouse; conditions: after three weeks
Protocol: as §1, §2, §3, §4, §5, §6

[5] = system: Abutilon; test: Pre-emergence test/greenhouse; conditions: after three weeks
Protocol: as §1, §2, §3, §4, §5, §6

[6] = system: Galium; test: Pre-emergence test/greenhouse; conditions: after three weeks
Protocol: as §1, §2, §3, §4, §5, §6

[7] = system: Sinapis; test: Pre-emergence test/greenhouse; conditions: after three weeks
Protocol: as §1, §2, §3, §4, §5, §6

[8] = system: Setaria; test: Post-emergence test/greenhouse
Protocol: as §1, §2, §3
as §4, with “Test plants which have a height” for “Seeds”, “5-15 cm” for “the test plants”, “are” for “are sown in normal soil. After about 24 hours, the soil is”
as §5, §6

[9] = system: Amaranthus; test: Post-emergence test/greenhouse; conditions: after three weeks
Protocol: as §1, §2, §3
as §4, with “Test plants which have a height” for “Seeds”, “5-15 cm” for “the test plants”, “are” for “are sown in normal soil. After about 24 hours, the soil is”
as §5, §6

[10] = system: Abutilon; test: Post-emergence test/greenhouse; conditions: after three weeks
Protocol: as §1, §2, §3
as §4, with “Test plants which have a height” for “Seeds”, “5-15 cm” for “the test plants”, “are” for “are sown in normal soil. After about 24 hours, the soil is”
as §5, §6

[11] = system: Xanthium; test: Post-emergence test/greenhouse; conditions: after three weeks
Protocol: as §1, §2, §3
as §4, with “Test plants which have a height” for “Seeds”, “5-15 cm” for “the test plants”, “are” for “are sown in normal soil. After about 24 hours, the soil is”
as §5, §6

[12] = system: weeds; test: Pre-emergence test; conditions: result in words
Protocol: as §1, §2, §3, §4, §5, §6

[13] = system: crop plants, such as, for example, sunflowers; test: Pre-emergence test, crop tolerance; conditions: result in words
Protocol: as §1, §2, §3, §4, §5, §6

[14] = system: weeds; test: Post-emergence test; conditions: result in words
Protocol: as §1, §2, §3
as §4, with “Test plants which have a height” for “Seeds”, “5-15 cm” for “the test plants”, “are” for “are sown in normal soil. After about 24 hours, the soil is”
as §5, §6

[15] = system: Sinapis; test: Post-emergence test/greenhouse; conditions: Table A-3, 1000 g of ai./ha, after three weeks
Protocol: as §1, §2, §3
as §4, with “Test plants which have a height” for “Seeds”, “5-15 cm” for “the test plants”, “are” for “are sown in normal soil. After about 24 hours, the soil is”
as §5, §6

[16] = Table A-3, 1000 g of ai./ha, after three weeks

CCC(COc1cc(C)cc(C)c1)Nc1nc(N)nc([C@@H](C)O)n1 (mixture of isomers) [Example 2] was tested, and the “degree of damage, Setaria” value ([1]; Table B-2, 1000 g of ai./ha) was 100%, the “degree of damage, Maize” value ([2]; Table B-2, 1000 g of ai./ha) was 20% and the “degree of damage, Amaranthus” value ([3]; Table B-2, 1000 g of ai./ha) was 80%. For the same compound, the “degree of damage, Alopecurus” value ([4]; Table B-2, 1000 g of ai./ha) was 100% and the “degree of damage, Abutilon” value ([5]; Table B-2, 1000 g of ai./ha) was 100%.
For CCC(COc1cc(C)cc(C)c1)Nc1nc(N)nc([C@H](C)O)n1 (mixture of isomers) [Example 3], the “degree of damage, Galium” value ([6]; Table B-3, 2000 g of ai./ha) was 100%, the “degree of damage, Sinapis” value ([7]; Table B-3, 2000 g of ai./ha) was 100% and the “degree of damage, Setaria” value ([1]; Table B-3, 2000 g of ai./ha) was 100%. The “degree of damage, Amaranthus” value ([3]; Table B-3, 2000 g of ai./ha) was 100% and the “degree of damage, Abutilon” value ([5]; Table B-3, 2000 g of ai./ha) was 100%.
In the case of CCC(COc1cc(C)cc(C)c1)Nc1nc(N)nc([C@H](C)Cl)n1 (mixture of isomers) [Example 4], the “degree of damage, Galium” value ([6]; Table B-3, 2000 g of ai./ha) is reported as 100%, the “degree of damage, Sinapis” value ([7]; Table B-3, 2000 g of ai./ha) is reported as 100% and the “degree of damage, Setaria” value ([1]; Table B-3, 2000 g of ai./ha) is reported as 100%. The “degree of damage, Amaranthus” value ([3]; Table B-3, 2000 g of ai./ha) was 95%, the “degree of damage, Alopecurus” value ([4]; Table B-3, 2000 g of ai./ha) was 100% and the “degree of damage, Abutilon” value ([5]; Table B-3, 2000 g of ai./ha) was 100%.
With CCC(COc1cc(C)cc(C)c1)Nc1nc(N)nc([C@@H](C)Cl)n1 (mixture of isomers) [Example 5] the “degree of damage, Galium” value ([6]; Table B-1, 1000 g of ai./ha) was 100%, the “degree of damage, Setaria” value ([1]; Table B-1, 1000 g of ai./ha) was 100% and the “degree of damage, Maize” value ([2]; Table B-1, 1000 g of ai./ha) was 20%. The “degree of damage, Abutilon” value ([5]; Table B-1, 1000 g of ai./ha) was 100%.
For CCC(COc1ccccc1)Nc1nc(N)nc([C@H](C)Cl)n1 (mixture of isomers) [Example 7], the “degree of damage, Galium” value ([6]; Table B-3, 1000 g of ai./ha) was 100%, the “degree of damage, Sinapis” value ([7]; Table B-3, 1000 g of ai./ha) was 100% and the “degree of damage, Setaria” value ([1]; Table B-3, 1000 g of ai./ha) was 95%. For the same compound, the “degree of damage, Amaranthus” value ([3]; Table B-3, 1000 g of ai./ha) was 100%, the “degree of damage, Alopecurus” value ([4]; Table B-3, 1000 g of ai./ha) was 95% and the “degree of damage, Abutilon” value ([5]; Table B-3, 1000 g of ai./ha) was 100%.
CCC(=O)Nc1nc(NC(CC)COc2ccccc2)nc([C@H](C)Cl)n1 (mixture of isomers) [Example 9] was tested, and the “degree of damage, Sinapis” value ([7]; Table B-2, 1000 g of ai./ha) was 100%, the “degree of damage, Maize” value ([2]; Table B-2, 1000 g of ai./ha) was 20% and the “degree of damage, Amaranthus” value ([3]; Table B-2, 1000 g of ai./ha) was 100%. For the same compound, the “degree of damage, Alopecurus” value ([4]; Table B-2, 1000 g of ai./ha) was 95% and the “degree of damage, Abutilon” value ([5]; Table B-2, 1000 g of ai./ha) was 95%.
For CCC(CCc1ccsc1)Nc1nc(N)nc([C@H](C)Cl)n1 (mixture of isomers) [Example 15], the “degree of damage, Galium” value ([6]; Table B-3, 1000 g of ai./ha) was 100%, the “degree of damage, Sinapis” value ([7]; Table B-3, 1000 g of ai./ha) was 100% and the “degree of damage, Setaria” value ([1]; Table B-3, 1000 g of ai./ha) was 100%. The “degree of damage, Amaranthus” value ([3]; Table B-3, 1000 g of ai./ha) was 100%, the “degree of damage, Alopecurus” value ([4]; Table B-3, 1000 g of ai./ha) was 100% and the “degree of damage, Abutilon” value ([5]; Table B-3, 1000 g of ai./ha) was 100%.
With C[C@H](Nc1nc(N)nc([C@@H](C)O)n1)c1ccccc1 [Example 1, 2-amino-4-(R)-(1-hydroxyethyl)-6-(S)-(1-phenyl-ethylamino)-1,3,5-triazine] the “degree of damage, Setaria” value ([8]; Table A-1, 1000 g of ai./ha, rated after three weeks, 0%=no effect, 100%=total destruction) was 90%, the “degree of damage, Amaranthus” value ([9]; Table A-1, 1000 g of ai./ha) was 100% and the “degree of damage, Abutilon” value ([10]; Table A-1, 1000 g of ai./ha) was 80%. For the same compound, the “degree of damage, Xanthium” value ([11]; Table A-1, 1000 g of ai./ha) was 95%, the activity against weeds [12] was “strong activity” and the “tolerance by crop plants” value [13] was “tolerated well”. For the same compound, the activity against weeds [14] was “strong activity”.
In the case of C[C@H](Nc1nc(N)nc([C@@H](C)Cl)n1)c1ccccc1 [Example 18], the “degree of damage, Sinapis” value [15] is reported as 100%, the “degree of damage, Setaria” value [8, 16] is reported as 100% and the “degree of damage, Amaranthus” value ([9]; Table A-3, 1000 g of ai./ha) is reported as 100%. For the same compound, the “degree of damage, Abutilon” value ([10]; Table A-3, 1000 g of ai./ha) was 100%, the “degree of damage, Xanthium” value ([11]; Table A-3, 1000 g of ai./ha) was 100% and the activity against weeds [14] was “strong activity”.
For CC[C@H](Nc1nc(N)nc([C@H](C)Cl)n1)c1ccccc1 [Example 22], the “degree of damage, Sinapis” value [15] was 100%, the “degree of damage, Setaria” value [8, 16] was 95% and the “degree of damage, Amaranthus” value ([9]; Table A-3, 1000 g of ai./ha) was 100%. For the same compound, the “degree of damage, Abutilon” value ([10]; Table A-3, 1000 g of ai./ha) was 95%, the “degree of damage, Xanthium” value ([11]; Table A-3, 1000 g of ai./ha) was 100% and the activity against weeds [14] was “strong activity”.
In the case of CC[C@H](Nc1nc(N)nc([C@@H](C)Cl)n1)c1ccccc1 [Example 23], the “degree of damage, Sinapis” value [15] is reported as 100%, the “degree of damage, Setaria” value [8, 16] is reported as 80% and the “degree of damage, Amaranthus” value ([9]; Table A-3, 1000 g of ai./ha) is reported as 100%. The “degree of damage, Abutilon” value ([10]; Table A-3, 1000 g of ai./ha) was 95%, the “degree of damage, Xanthium” value ([11]; Table A-3, 1000 g of ai./ha) was 100% and the activity against weeds [14] was “strong activity”.

From patent US6358886B1, “6-Substituted 2,4-diamino-1,3,5-triazine derivatives having at least two asymmetrically substituted carbon atoms, the production thereof, and their use as herbicides” (Bayer Aktienegesellschaft, priority 1998, dated 2002)
